Key:
[1] = Dissolution of isolated product in water; assay type: physicochemical; settings: observation
[2] = product dissolved in water, observation

Compound	dissolution in water [1]	stability in water [2]
CCCCCCCCCCCCCCCCCC[N+](C)(C)CCC[Si](OCC(CO)(CO)NCCS(=O)(=O)[O-])(OCC(CO)(CO)NCCS(=O)(=O)O)OCC(CO)(CO)NCCS(=O)(=O)O [Example 1, Disodium; 2-[[1-[[3-[dimethyl(octadecyl)ammonio]propyl-[3-hydroxy-2-(hydroxymethyl)-2-(2-sulfoethylamino)propoxy]-[3-hydroxy-2-(hydroxymethyl)-2-(2-sulfonatoethylamino)propoxy]silyl]oxymethyl]-2-hydroxy-1-(hydroxymethyl)ethyl]amino]ethanesulfonate chloride]	dissolves in water	–
CCCCCCCCCCCCCCCCCC[N+](C)(C)CCC[Si](OCC(CO)(CO)NCC(O)CS(=O)(=O)[O-])(OCC(CO)(CO)NCC(O)CS(=O)(=O)O)OCC(CO)(CO)NCC(O)CS(=O)(=O)O (stereo not shown) [Example 2, Disodium; 3-[[1-[[3-[dimethyl(octadecyl)ammonio]propyl-[3-hydroxy-2-(hydroxymethyl)-2-[(2-hydroxy-3-sulfonato-propyl)amino]propoxy]-[3-hydroxy-2-(hydroxymethyl)-2-[(2-hydroxy-3-sulfo-propyl)amino]propoxy]silyl]oxymethyl]-2-hydroxy-1-(hydroxymethyl)ethyl]amino]-2-hydroxy-propane-1-sulfonate; chloride]	dissolves in water	–
CCCCCCCCCCCCCCCCCC[N+](C)(C)CCC[Si](OCC(CO)(CO)NCCS(=O)(=O)[O-])(OCC(CO)(CO)NCCS(=O)(=O)O)OCC(CO)(CO)NCCS(=O)(=O)O [Example 4, Sodium; 7,7-bis(3-hydroxy-2-(hydroxymethyl)-2-((2-sulfoethyl)amino)propoxy)-4,4-bis(hydroxymethyl)-11,11-dimethyl-6-oxa-3,11-diaza-7-silanonacosan-11-ium-1-sulfonate; chloride]	dissolved quickly in water, initially hazy but slowly forms clear	–
CCCCCCCCCCCCCCCCC[N+](C)(C)CCC[Si](OCCN(CCO)CC(O)CS(=O)(=O)[O-])(OCCN(CCO)CC(O)CS(=O)(=O)O)OCCN(CCO)CC(O)CS(=O)(=O)O (stereo not shown) [Example 8, Disodium; 3-[2-[3-[heptadecyl(dimethyl)ammonio]propyl-[2-[2-hydroxyethyl-(2-hydroxy-3-sulfonato-propyl)amino]ethoxy]-[2-[2-hydroxyethyl-(2-hydroxy-3-sulfo-propyl)amino]ethoxy]silyl]oxyethyl-(2-hydroxyethyl)amino]-2-hydroxy-propane-1-sulfonate; chloride]	dissolved in water	forms a precipitate after 5 hours
CCCCCCCCCCCCCCCCCC[N+](C)(C)CCC[Si](OCC(CO)(CO)NCC(=O)[O-])(OCC(CO)(CO)NCC(=O)[O-])OCC(CO)(CO)NCC(=O)O.[Cl-].[Na+].[Na+] [Example 10, Disodium, 7-(2-((carboxymethyl)amino)-3-hydroxy-2-(hydroxymethyl)propoxy)-7-(3-(dimethyl(octadecyl)ammonio)propyl)-4,4,10,10-tetrakis(hydroxymethyl)-6,8-dioxa-3,11-diaza-7-silatridecanedioate; chloride]	readily dissolved in water	–
CCCCCCCCCCCCCCCCC[N+](C)(C)CCC[Si]12OC[C@@H](O)[C@H](O1)[C@H](O)[C@H](C(=O)[O-])O2 [Example 16, Sodium (3R,4S,5S,6R)-1-(3-(heptadecyldimethylammonio)propyl)-4,6-dihydroxy-2,8,9-trioxa-1-silabicyclo[3.3.1]nonane-3-carboxylate; Chloride]	poorly dissolved in water	quickly decomposed to for a biphasic mixture
CCCCCCCCCCCCCCCCC[N+](C)(C)CCC[Si]1(O[C@H](C(=O)O)[C@H](O)[C@H](O)[C@@H](O)C(=O)O)O[C@@H]([C@H](O)C(=O)O)[C@H](O)[C@H](C(=O)O)O1 (stereo partly drawn) [Example 17, N-(3-((4R,5S,6R)-4-carboxy-6-((S)-carboxy(hydroxy)methyl)-2-((1S,2R,3S,4R)-1,4-dicarboxy-2,3,4-trihydroxybutoxy)-5-hydroxy-1,3,2-dioxasilinan-2-yl)propyl)-N,N-dimethylheptadecan-1-aminium chloride]	poorly dissolved in water	quickly decomposed to for a biphasic mixture
CCCCCCCCCCCCCCCCCC[N+](C)(C)CCC[Si](OCC(CO)(CO)NCCS(=O)(=O)[O-])(OCC(CO)(CO)NCCS(=O)(=O)O)OCC(CO)(CO)NCCS(=O)(=O)O.[Cl-].[Na+] [Example 21, Monosodium; 2-[[1-[[3-[dimethyl(octadecyl)ammonio]propyl-[3-hydroxy-2-(hydroxymethyl)-2-(2-sulfoethylamino)propoxy]-[3-hydroxy-2-(hydroxymethyl)-2-(2-sulfonatoethylamino)propoxy]silyl]oxymethyl]-2-hydroxy-1-(hydroxymethyl)ethyl]amino]ethanesulfonate chloride]	dissolves readily in water	–
Disodium, 7-(2-((carboxymethyl)(2-hydroxyethyl)amino)ethoxy)-7-(3-(heptadecyldimethylammonio)propyl)-3,11-bis(2-hydroxyethyl)-6,8-dioxa-3,11-diaza-7-silatridecanedioate; chloride [Example 13]	readily dissolved in water	soon formed a suspension
